The values that follow come from patent publication US20110152313A1 (MACQUARIE UNIVERSITY, priority 2008, published 2011).

In one test the target is T1, PRKCE (Homo sapiens, UniProt Q02156).
T1 sequence (Q02156 1-737): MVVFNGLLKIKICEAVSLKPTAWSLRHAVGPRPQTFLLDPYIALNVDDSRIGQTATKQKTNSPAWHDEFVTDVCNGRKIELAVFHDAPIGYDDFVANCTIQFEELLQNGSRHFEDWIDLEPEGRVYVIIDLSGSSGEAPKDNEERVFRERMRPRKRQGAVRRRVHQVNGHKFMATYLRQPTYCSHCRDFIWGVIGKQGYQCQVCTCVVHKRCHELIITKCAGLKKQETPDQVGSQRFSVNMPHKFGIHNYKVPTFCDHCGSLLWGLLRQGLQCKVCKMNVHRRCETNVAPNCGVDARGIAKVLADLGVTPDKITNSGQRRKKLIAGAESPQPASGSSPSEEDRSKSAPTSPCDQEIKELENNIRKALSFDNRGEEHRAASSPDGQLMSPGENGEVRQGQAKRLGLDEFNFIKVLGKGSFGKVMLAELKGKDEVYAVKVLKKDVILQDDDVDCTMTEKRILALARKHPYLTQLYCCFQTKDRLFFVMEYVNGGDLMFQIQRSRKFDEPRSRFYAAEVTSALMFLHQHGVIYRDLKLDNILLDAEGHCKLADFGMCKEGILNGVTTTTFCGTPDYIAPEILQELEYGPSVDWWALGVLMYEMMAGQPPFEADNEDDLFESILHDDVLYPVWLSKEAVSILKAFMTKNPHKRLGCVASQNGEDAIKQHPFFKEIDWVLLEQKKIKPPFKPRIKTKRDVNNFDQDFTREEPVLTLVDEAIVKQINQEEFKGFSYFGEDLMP
In words: kinase binding constant, 11-point dose response (T7 phage, qPCR). The following applies: >30 = no inhibition at highest concentration tested. The procedure:
(§1) Kinase inhibition studies were performed by methods well known in the prior art (Fabian, M. A. et al. Nat. Biotechnol. 2005, 23, 329). Briefly, kinase-tagged T7 phage strains were prepared in an E. coli host derived from the BL21 strain. E. coli were grown to log-phase and infected with T7 phage and incubated with shaking at 32° C. until lysis. The lysates were centrifuged and filtered to remove cell debris. […] The liganded beads were blocked with excess biotin and washed with blocking buffer (SeaBlock (Pierce); 1% BSA, 0.05% Tween 20, 1 mM DTT) to remove unbound ligand and to reduce non-specific binding. […] All reactions were performed in polystyrene 96-well plates in a final volume of 0.135 ml. […] The kinase concentration in the eluates was measured by qPCR.
(§2) An 11-point 3-fold serial dilution of each test compound (from 30 μM to 0.5 nM) was prepared in 100% DMSO at 100× final test concentration and subsequently diluted to 1× in the assay (final DMSO concentration=1%). Binding constants (KDS) were calculated with a standard dose-response curve using a 5-point sigmoidal (Hill) equation.

Another test addresses T2, CDKL5 (Homo sapiens, UniProt O76039).
T2 sequence (O76039 1-960): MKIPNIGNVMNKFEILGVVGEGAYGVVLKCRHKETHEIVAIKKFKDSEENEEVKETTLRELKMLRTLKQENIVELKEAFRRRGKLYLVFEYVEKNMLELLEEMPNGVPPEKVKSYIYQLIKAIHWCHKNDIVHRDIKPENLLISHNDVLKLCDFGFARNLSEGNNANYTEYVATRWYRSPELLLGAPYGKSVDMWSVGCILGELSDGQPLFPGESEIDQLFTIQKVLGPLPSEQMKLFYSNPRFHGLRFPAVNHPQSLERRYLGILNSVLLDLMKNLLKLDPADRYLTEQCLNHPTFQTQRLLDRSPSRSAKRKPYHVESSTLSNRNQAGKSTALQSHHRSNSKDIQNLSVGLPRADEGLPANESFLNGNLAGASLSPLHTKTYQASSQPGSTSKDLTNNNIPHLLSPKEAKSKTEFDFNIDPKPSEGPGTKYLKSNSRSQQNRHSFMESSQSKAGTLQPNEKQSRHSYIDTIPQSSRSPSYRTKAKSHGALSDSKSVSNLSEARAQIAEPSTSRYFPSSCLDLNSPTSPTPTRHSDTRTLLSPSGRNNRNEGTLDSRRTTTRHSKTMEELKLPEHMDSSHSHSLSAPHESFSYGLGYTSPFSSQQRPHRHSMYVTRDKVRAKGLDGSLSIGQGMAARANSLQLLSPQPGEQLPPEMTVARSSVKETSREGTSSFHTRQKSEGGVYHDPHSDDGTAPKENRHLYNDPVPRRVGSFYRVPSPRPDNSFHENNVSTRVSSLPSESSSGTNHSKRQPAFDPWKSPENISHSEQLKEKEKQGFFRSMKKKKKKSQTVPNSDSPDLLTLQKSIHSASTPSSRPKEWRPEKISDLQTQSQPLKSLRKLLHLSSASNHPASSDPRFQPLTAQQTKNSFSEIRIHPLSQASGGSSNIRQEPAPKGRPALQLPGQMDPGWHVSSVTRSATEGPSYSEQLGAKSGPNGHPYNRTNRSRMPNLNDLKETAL
Described as above. To be noted: >30 = no inhibition at highest concentration tested. The procedure:
as §1, §2

`Nc1nc2c(-c3ccccn3)nccc2[nH]1` [drawing 35, 4-(pyrid-2-yl)-1H-imidazo[4,5-c]pyridin-2-amine] gave a Kd on PRKCE above 30 µM.
On CDKL5, `Nc1nc2c(-c3cnc4ccccc4c3)nccc2[nH]1` [drawing 36, 4-(quinolin-3-yl)-1H-imidazo[4,5-c]pyridin-2-amine] came in with a Kd above 30 µM.
